Laboratory results published in patent US20050053631A1, “Method of decreasing sebum production” (Unilever Home & Personal Care USA, Division of Conopco, Inc., priority 2003, published 2005).

Test system: sebocytes
Test: In Vitro Sebocyte Lipogenesis Assay (14-C acetate incorporation into lipids of cultured sebocytes)
Type: cell-based
Settings: cultured human sebocytes; for % decrease in lipid syn.: 24 h, relative to vehicle control
Procedure: In Vitro Sebocyte Lipogenesis Assay
Human sebaceous glands were isolated from the nose of a person and cultured using submerged tissue culture techniques (Bajor et al, J. Invest. Dermatol., 102:1994, p. 564). These sebocytes accumulate intracellular lipid droplets characteristic of mature human sebum.
Harvested and passaged sebocytes were added to each well of a 96 well tissue culture plate and incubated at 37° C. in-the presence of 7.5% CO2 for 10 days. The growth medium was changed three times per week. On the day of experimentation, the growth medium was removed and the sebocytes washed three times with phosphate buffered saline (PBS). Fresh phenol-free sebocyte growth media in 0.2 ml amount containing various concentrations of active agent speculated to inhibit lipogenesis was added to each well. Triplicate wells were utilized for each sample. […] The cultures were incubated at 37° C./7.5% CO2 for 24 hours. Radioactive label was prepared by adding 100 μl (micro-liters) of 14-C labelled acetic acid (Amersham, sodium salt, specific activity of 56 mCi/mmol) to 10 ml of 50 mM sodium acetate buffer. Then 50 μl was added to each well containing the sebocytes and active agents. The cultures were returned to the incubator for 4 hours. Thereafter the treatments and label were removed and the sebocytes rinsed three times with fresh PBS. Samples containing the 14-C label were extracted and the label counted using a Beckman scintillation counter. Triplicates were performed for each sample.
For each 96 well tissue culture plate, 20 samples could be analyzed. Of these, 1 sample was reserved for media, 1 sample for DMSO or ethanol, and 1 sample for phenol red leaving 17 remaining samples.

C=C1CCC(=O)O1 [γ-methylene γ-butyrolactone]
activity in reducing lipid synthesis in sebocytes (in words): ineffective

C=C1CCOC1=O [α-methylene-γ-butyrolactone]
% decrease in lipid syn. (10 uM): 1.3% | % decrease in lipid syn. (20 uM): 13.2% | % decrease in lipid syn. (100 uM): 53.3% | % decrease in lipid syn. (500 uM): 100% | activity in reducing lipid synthesis in sebocytes (in words): significant activity

[2R,3S]-2,3-epoxy4-oxo-7,10-trans, trans-dodecanoic acid amide [Cerulenin]
% decrease in lipid syn. (1.6 uM): 13.6% | % decrease in lipid syn. (5 uM): 52.0% | % decrease in lipid syn. (10 uM): 96.5% | % decrease in lipid syn. (40 uM): 99.0% | % decrease in lipid syn. (concentration not printed (between 40 uM and 10 uM in the list)): 96.5% | activity in reducing lipid synthesis in sebocytes (in words): significant activity

Oc1cc(Cl)ccc1Oc1ccc(Cl)cc1Cl [Triclosan]
% decrease in lipid syn. (20 uM): 48.8% | % decrease in lipid syn. (40 uM): 90% | % decrease in lipid syn. (100 uM): 97.2% | activity in reducing lipid synthesis in sebocytes (in words): significant activity

O=C(OC1Cc2c(O)cc(O)cc2OC1c1cc(O)c(O)c(O)c1)c1cc(O)c(O)c(O)c1 (single isomer, unassigned; (-)) [EGCG, (−)-epigallocatechin gallate]
% decrease in lipid syn. (8 uM): 8.9% | % decrease in lipid syn. (40 uM): 13.4% | % decrease in lipid syn. (200 uM): 29.5% | % decrease in lipid syn. (1000 uM): 90% | activity in reducing lipid synthesis in sebocytes (in words): significant activity

C=C/C(C)=C/[C@@]1(C)SC(=O)C(C)=C1O [Thiolactomycin]
activity in reducing lipid synthesis in sebocytes (in words): not to inhibit
